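These data come from cells grown in 96-well plates and exposed to compound for 48 hours at five concentrations. Abbreviation: GI50, concentration required for 50% inhibition of growth.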 Active and inactive are the calls of the source. Rule as the data show it: active = GI50 up to about 1.1 µM and inactive = higher.
Columns and labels:
Assay in all cases: NCI anticancer screen, dose series, 48 h
[1] = test system: SK-MEL-28
[2] = test system: CAKI-1
[3] = test system: M14
[4] = test system: RPMI-8226
[5] = test system: OVCAR-8
[6] = test system: COLO 205
[7] = test system: UO-31
[8] = test system: NCI-H226
[9] = test system: 786-0
[10] = test system: TK-10
[11] = test system: HCT-15
[12] = test system: KM12
[13] = test system: LOX IMVI
[14] = test system: UACC-257
[15] = test system: SF-295
[16] = test system: NCI-H522
[17] = test system: OVCAR-3
[18] = test system: MDA-N
[19] = test system: DU-145
[20] = test system: MDA-MB-435

SMILES | GI50 [1] | GI50 [2] | GI50 [3] | GI50 [4] | GI50 [5] | GI50 [6] | GI50 [7] | GI50 [8] | GI50 [9] | GI50 [10] | GI50 [11] [µM] | GI50 [12] | GI50 [13] | GI50 [14] | GI50 [15] | GI50 [16] | GI50 [17] | GI50 [18] | GI50 [19] | GI50 [20]
COc1ccc(/C=C(\NC(=O)c2ccccc2)c2nc3ccccc3[nH]2)cc1OC | > 100 µM (inactive) | > 100 µM (inactive) | > 100 µM (inactive) | 80.5 µM (inactive) | > 100 µM (inactive) | > 100 µM (inactive) | 99.3 µM (inactive) | > 100 µM (inactive) | > 100 µM (inactive) | > 100 µM (inactive) | > 100 | > 100 µM (inactive) | > 100 µM (inactive) | > 100 µM (inactive) | > 100 µM (inactive) | > 100 µM (inactive) | > 100 µM (inactive) | – | – | –
CN(C)CCCNC(=O)N/N=C\c1cccc2ccccc12 | > 10 µM (inactive) | – | > 10 µM (inactive) | > 10 µM (inactive) | > 10 µM (inactive) | > 10 µM (inactive) | 4.45 µM (inactive) | – | – | > 10 µM (inactive) | > 10 | > 10 µM (inactive) | > 10 µM (inactive) | – | > 10 µM (inactive) | > 10 µM (inactive) | – | > 10 µM (inactive) | > 10 µM (inactive) | –
O=C(O)C(/C=C/c1ccccc1)c1ccccc1 (configuration not stated) | > 100 µM (inactive) | – | > 100 µM (inactive) | > 100 µM (inactive) | > 100 µM (inactive) | > 100 µM (inactive) | > 100 µM (inactive) | > 100 µM (inactive) | > 100 µM (inactive) | > 100 µM (inactive) | > 100 | – | > 100 µM (inactive) | > 100 µM (inactive) | > 100 µM (inactive) | 69.7 µM (inactive) | > 100 µM (inactive) | > 100 µM (inactive) | > 100 µM (inactive) | –
Cc1ccccc1NC(=O)C(=O)CC(=O)C1CCOC1=O (configuration not stated) | > 100 µM (inactive) | > 100 µM (inactive) | > 100 µM (inactive) | > 100 µM (inactive) | > 100 µM (inactive) | > 100 µM (inactive) | > 100 µM (inactive) | > 100 µM (inactive) | > 100 µM (inactive) | > 100 µM (inactive) | > 100 | > 100 µM (inactive) | > 100 µM (inactive) | > 100 µM (inactive) | > 100 µM (inactive) | > 100 µM (inactive) | > 100 µM (inactive) | – | – | –
Clc1cccc(Cl)c1C1SCc2nc3ccccc3n21 (configuration not stated) | – | > 100 µM (inactive) | > 100 µM (inactive) | 9.2 µM (inactive) | > 100 µM (inactive) | > 100 µM (inactive) | > 100 µM (inactive) | > 100 µM (inactive) | > 100 µM (inactive) | > 100 µM (inactive) | 24.9 | > 100 µM (inactive) | > 100 µM (inactive) | 21.1 µM (inactive) | > 100 µM (inactive) | > 100 µM (inactive) | > 100 µM (inactive) | – | – | –
CC1(C)O[C@@H](CCl)C[C@H](C#N)O1 | > 100 µM (inactive) | > 100 µM (inactive) | > 100 µM (inactive) | > 100 µM (inactive) | > 100 µM (inactive) | > 100 µM (inactive) | > 100 µM (inactive) | 97.1 µM (inactive) | > 100 µM (inactive) | > 100 µM (inactive) | > 100 | > 100 µM (inactive) | > 100 µM (inactive) | > 100 µM (inactive) | > 100 µM (inactive) | > 100 µM (inactive) | > 100 µM (inactive) | – | – | –
CCN(CC)CC1CCCCN1CC(=O)N1c2cc(Cl)ccc2NC(=O)CC1C (configuration not stated) | > 100 µM (inactive) | > 100 µM (inactive) | > 100 µM (inactive) | > 100 µM (inactive) | > 100 µM (inactive) | > 100 µM (inactive) | > 100 µM (inactive) | > 100 µM (inactive) | > 100 µM (inactive) | > 100 µM (inactive) | > 10 | > 100 µM (inactive) | > 100 µM (inactive) | > 100 µM (inactive) | – | > 100 µM (inactive) | > 100 µM (inactive) | – | – | –
CC1=NOC(=O)/C1=C/c1cccc2ccccc12 | > 100 µM (inactive) | > 100 µM (inactive) | > 100 µM (inactive) | > 100 µM (inactive) | > 100 µM (inactive) | > 100 µM (inactive) | > 100 µM (inactive) | > 100 µM (inactive) | > 100 µM (inactive) | > 100 µM (inactive) | > 100 | > 100 µM (inactive) | > 100 µM (inactive) | > 100 µM (inactive) | > 100 µM (inactive) | > 100 µM (inactive) | > 100 µM (inactive) | – | – | –
CON(C)C(=O)C(C)N(Cc1ccccc1)Cc1ccccc1 (configuration not stated) | > 100 µM (inactive) | – | 68.7 µM (inactive) | 42.8 µM (inactive) | > 100 µM (inactive) | – | 38.5 µM (inactive) | 64.6 µM (inactive) | > 100 µM (inactive) | > 100 µM (inactive) | 34.8 | > 100 µM (inactive) | – | 82 µM (inactive) | > 100 µM (inactive) | – | 88.3 µM (inactive) | > 100 µM (inactive) | > 100 µM (inactive) | 88.9 µM (inactive)
COC(=O)c1nc(NN)cc(O)c1CCCCCc1c(O)nc(NN)nc1C(=O)OC | > 100 µM (inactive) | > 100 µM (inactive) | > 100 µM (inactive) | 72.4 µM (inactive) | > 100 µM (inactive) | > 77.8 µM (inactive) | > 100 µM (inactive) | > 100 µM (inactive) | > 100 µM (inactive) | > 100 µM (inactive) | > 100 | > 100 µM (inactive) | > 100 µM (inactive) | > 100 µM (inactive) | > 100 µM (inactive) | > 100 µM (inactive) | > 100 µM (inactive) | – | – | –
CCOC(=O)/C(=C\c1ccc(N(CCC#N)CCC#N)cc1C)NC(=O)/C=C/c1ccccc1 | > 100 µM (inactive) | > 100 µM (inactive) | > 100 µM (inactive) | > 100 µM (inactive) | > 100 µM (inactive) | > 100 µM (inactive) | > 100 µM (inactive) | 96.2 µM (inactive) | > 100 µM (inactive) | > 100 µM (inactive) | > 100 | > 100 µM (inactive) | > 100 µM (inactive) | > 100 µM (inactive) | > 100 µM (inactive) | > 100 µM (inactive) | > 100 µM (inactive) | – | – | –
Nc1ccccc1SCc1csc(-c2ccc(Cl)cc2)n1 | 30.5 µM (inactive) | 51.3 µM (inactive) | 17.4 µM (inactive) | 12.7 µM (inactive) | 30.5 µM (inactive) | 18 µM (inactive) | 15.8 µM (inactive) | 20.7 µM (inactive) | 19.9 µM (inactive) | 38.1 µM (inactive) | 26.1 | 20 µM (inactive) | 16.9 µM (inactive) | 26.5 µM (inactive) | 41.2 µM (inactive) | 10.7 µM (inactive) | 20.2 µM (inactive) | – | 34.5 µM (inactive) | 18.2 µM (inactive)
Cn1ncc2c(Nc3ccc(Cl)cc3)c3ccccc3nc21 | 15.3 µM (inactive) | 21.8 µM (inactive) | 14.8 µM (inactive) | 20.1 µM (inactive) | 14.8 µM (inactive) | 19.7 µM (inactive) | > 10 µM (inactive) | 17.3 µM (inactive) | 14.1 µM (inactive) | 21.4 µM (inactive) | 15.7 | 18.7 µM (inactive) | 15.1 µM (inactive) | 17.3 µM (inactive) | 17.7 µM (inactive) | 19.4 µM (inactive) | 18.7 µM (inactive) | – | – | –
CC(O[Si](c1ccccc1)(c1ccccc1)C(C)(C)C)[C@H](NC(=O)OC(C)(C)C)C(=O)O (some centres not stated) | 50 µM (inactive) | 40.3 µM (inactive) | 38.3 µM (inactive) | 35.6 µM (inactive) | 42 µM (inactive) | 22.7 µM (inactive) | 33.9 µM (inactive) | – | 42.4 µM (inactive) | 45 µM (inactive) | 29 | 35.3 µM (inactive) | – | 36.1 µM (inactive) | 19.8 µM (inactive) | – | – | 38.7 µM (inactive) | > 10 µM (inactive) | –
CC[C@H](C)N(CCN)C(=O)c1cc2ccccc2c(-c2ccccc2Cl)n1 | 13.5 µM (inactive) | 5.57 µM (inactive) | 17.8 µM (inactive) | 13.2 µM (inactive) | 14.2 µM (inactive) | 4.54 µM (inactive) | 12.7 µM (inactive) | 15 µM (inactive) | 4.49 µM (inactive) | 12.1 µM (inactive) | 4.42 | 14.9 µM (inactive) | 14.3 µM (inactive) | 1.91 µM (inactive) | 15.1 µM (inactive) | 17.5 µM (inactive) | 16.6 µM (inactive) | – | – | –
NC1CC(=O)c2c(Br)csc21 (configuration not stated) | 25.9 µM (inactive) | 55 µM (inactive) | > 100 µM (inactive) | 38.5 µM (inactive) | 42.9 µM (inactive) | 58.1 µM (inactive) | 33 µM (inactive) | – | 82 µM (inactive) | 32.5 µM (inactive) | 35.4 | 32.1 µM (inactive) | – | 40.2 µM (inactive) | – | – | 50.6 µM (inactive) | 12.5 µM (inactive) | > 100 µM (inactive) | 21.2 µM (inactive)
CCCCP(CCCC)(CCCC)=C(C(=O)OC)C(C(=O)OC)=C1SC(C(=O)OC)=C(C(=O)OC)S1 | 15.5 µM (inactive) | – | 15.2 µM (inactive) | 63.2 µM (inactive) | 20.7 µM (inactive) | 17 µM (inactive) | 20.3 µM (inactive) | 20 µM (inactive) | 17.8 µM (inactive) | 38.6 µM (inactive) | 30.5 | – | 13.2 µM (inactive) | 17.6 µM (inactive) | 19.3 µM (inactive) | 17.7 µM (inactive) | 19.3 µM (inactive) | – | 40.8 µM (inactive) | 14.8 µM (inactive)
